Assay results as given in US11951088B2, “Fatty acid analogs and their use in the treatment of conditions related to metabolic syndrome” (Epitracker, Inc., priority 2017, dated 2024).
Where two headings read alike, the source gives them in different places.

Experiments:
[1] = 24-hour plasma pharmacokinetics after single oral dose in rats; assay type: in vivo; conditions: for bioavailability: po, 35 mg/kg
[2] = system: New Zealand white rabbits fed a high fat diet; test: diet-induced rabbit model for metabolic syndrome-associated dyslipidemia, anemia, liver iron overload and steatohepatitis; assay type: in vivo; conditions: Day 76
Description: This study further assessed the efficacy of treating diseases associated with metabolic syndrome, including dyslipidemia, inflammation, anemia, liver iron overload and nonalcoholic steatohepatitis, using an oral odd-chain saturated fatty acid. Sixteen New Zealand white rabbits were fed a high fat diet (HFD) (4% peanut oil and 0.5% cholesterol) for 2 weeks. Eight additional rabbits were maintained on a baseline diet. Study rabbits were then divided into the following three groups of eight: baseline diet controls, HFD controls, and C15:0-treated (35 mg/kg body weight) cases. The test article was a synthetic powder stable at room temperature and purchased from Sigma-Aldrich (Products W433400 (≥99% C15:0). The test article was provided daily in the diet for 11 weeks (76 days) while continuing ad libitum access to the HFD (HFD controls and treated groups) or baseline diet (baseline diet controls). Body weight and food intake were measured weekly. Plasma clinical chemistries and red blood cell indices, as well as iron deposition and fibrosis in the liver, were assessed at Day 76. Data from the treated group were compared to the control groups using Wilcoxon rank sum analyses. […].
Table 2 provides comparisons of clinical effects from a diet-induced rabbit model for metabolic syndrome-associated dyslipidemia, inflammation, and hemolytic anemia, including a case group treated daily with oral pentadecanoic acid (C15:0) (35 mg/kg BW) for 11 weeks.
Table 3 provides comparisons of effects on liver histology in a diet-induced rabbit model for metabolic syndrome-associated liver iron overload and nonalcoholic steatohepatitis, including a case group treated daily with oral pentadecanoic acid (C15:0) (35 mg/kg BW) for 11 weeks.

human PPAR-δ = molecular target: T1, human PPAR-δ (Homo sapiens, UniProt Q03181); test: PathHunter NHR Protein Interaction assay, PPAR-δ agonist activity (CHO cells)
T1 sequence (Q03181 1-441): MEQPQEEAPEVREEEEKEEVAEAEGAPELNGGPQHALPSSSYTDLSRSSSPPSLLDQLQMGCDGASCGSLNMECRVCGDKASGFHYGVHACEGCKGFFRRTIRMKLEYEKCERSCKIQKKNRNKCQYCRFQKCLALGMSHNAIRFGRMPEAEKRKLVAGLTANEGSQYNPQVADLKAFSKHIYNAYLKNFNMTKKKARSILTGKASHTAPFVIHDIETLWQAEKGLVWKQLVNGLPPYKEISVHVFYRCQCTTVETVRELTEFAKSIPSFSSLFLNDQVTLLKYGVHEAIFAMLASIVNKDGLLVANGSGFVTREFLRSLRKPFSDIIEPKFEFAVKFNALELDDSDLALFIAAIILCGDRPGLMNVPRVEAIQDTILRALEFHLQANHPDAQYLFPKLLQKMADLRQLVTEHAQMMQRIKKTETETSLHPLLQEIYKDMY
Procedure: (§1) PPAR-α, PPAR-δ, and PPAR-γ agonist activities were measured using PathHunter Nuclear Hormone Receptor (NHR) Protein Interaction (Pro) assays (DiscoverX, Freemont, California). Briefly, Chinese hamster ovary (CHO) cell lines were used to monitor the activation of PPAR-α, PPAR-δ, and PPAR-γ in a homogenous, non-imaging assay format using Enzyme Fragment Complementation (EFC). The NHR Pro assay was based on detection of protein-protein interactions between activated, full length PPAR-α, PPAR-δ, and PPAR-γ proteins and a nuclear fusion protein containing Steroid Receptor Co-activator Peptide (SRCP) domains with one or more canonical LXXLL interaction motifs. PPAR-α, PPAR-δ, and PPAR-γ were tagged with the ProLink component of the EFC assay system, and the SRCP domain was fused to the enzyme acceptor component (EA) expressed in the nucleus. When bound by ligand, PPAR-α, PPAR-δ, or PPAR-γ migrated to the nucleus and recruited the SRCP domain, whereby complementation occurred, generating a unit of active β-Galactosidase (β-Gal) and production of chemiluminescent signal. […] Percentage activity was calculated using the following formula: % Activity=100%×(mean RLU of test sample−mean RLU of vehicle control)/(mean MAX control ligand−mean RLU of vehicle control).

human PPAR-γ = molecular target: T2, human PPAR-γ (Homo sapiens, UniProt P37231); test: PathHunter NHR Protein Interaction assay, PPAR-γ agonist activity (CHO cells)
T2 sequence (P37231 1-505): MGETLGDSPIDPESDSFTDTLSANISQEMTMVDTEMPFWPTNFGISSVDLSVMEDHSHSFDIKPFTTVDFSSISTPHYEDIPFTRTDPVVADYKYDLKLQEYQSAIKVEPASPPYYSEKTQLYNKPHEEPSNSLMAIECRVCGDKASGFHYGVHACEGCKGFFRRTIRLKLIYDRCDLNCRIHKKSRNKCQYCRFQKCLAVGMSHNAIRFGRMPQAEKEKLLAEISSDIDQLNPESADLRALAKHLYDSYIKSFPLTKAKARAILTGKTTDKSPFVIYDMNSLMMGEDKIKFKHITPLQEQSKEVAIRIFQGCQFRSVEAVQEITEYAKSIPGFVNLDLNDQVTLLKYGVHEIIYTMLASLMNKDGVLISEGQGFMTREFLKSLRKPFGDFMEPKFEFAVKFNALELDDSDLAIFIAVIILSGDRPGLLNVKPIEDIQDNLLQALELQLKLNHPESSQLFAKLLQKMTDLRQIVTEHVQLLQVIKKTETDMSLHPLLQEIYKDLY
Procedure: as §1

human PPAR-α = molecular target: T3, human PPAR-α (Homo sapiens, UniProt Q07869); test: PathHunter NHR Protein Interaction assay, PPAR-α agonist activity (CHO cells); conditions: PPAR-alpha; Table 4
T3 sequence (Q07869 1-468): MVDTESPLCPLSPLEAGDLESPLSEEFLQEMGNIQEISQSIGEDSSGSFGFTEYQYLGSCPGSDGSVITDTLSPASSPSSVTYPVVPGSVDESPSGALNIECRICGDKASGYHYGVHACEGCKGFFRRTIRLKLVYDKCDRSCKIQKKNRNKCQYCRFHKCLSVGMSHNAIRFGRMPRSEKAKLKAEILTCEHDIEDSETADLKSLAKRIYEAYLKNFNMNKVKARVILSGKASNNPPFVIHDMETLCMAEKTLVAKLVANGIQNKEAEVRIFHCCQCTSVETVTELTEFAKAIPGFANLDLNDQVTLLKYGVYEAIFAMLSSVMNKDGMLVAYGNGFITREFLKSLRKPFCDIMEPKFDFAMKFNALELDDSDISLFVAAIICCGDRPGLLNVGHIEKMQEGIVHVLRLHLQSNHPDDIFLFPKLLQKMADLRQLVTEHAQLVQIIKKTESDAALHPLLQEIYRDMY
Procedure: as §1

[3] = system: C57BL/6J mice fed a high fat diet; test: diet-induced obese mice treated daily by gastric gavage for 12 weeks; assay type: in vivo
Procedure: Forty C57BL/6J mice were fed a high fat diet (HFD) (D12492, 60% kcals fat) for 8 weeks. Study mice were then divided into the following four groups of ten: vehicle controls, low dose C17:0-treated (5 mg/kg body weight), high-dose C17:0-treated (50 mg/kg body weight), and low-dose C15:0-treated (5 mg/kg body weight).
Table 1 provides comparisons of cardiometabolic effects in diet-induced obese mice treated daily with oral pentadecanoic acid (5 mg/kg BW), heptadecanoic acid (5 and 50 mg/kg BW) for 12 weeks compared to vehicle controls. “Results” values are based on 6 h fasted samples.

[4] = Day 84, 6 h fasted, 5 mg/kg daily oral

## CCCCCCCCCCCCCCC(=O)O [C15:0, pentadecanoic acid]
[1]; 35 mg/kg single oral dose
  Cmin: 700 ng/mL
  Tlast: 24 h
[1]; rat, 35 mg/kg single oral dose
  AUC(0-t): 46400 ng·h/mL
  Tmax: 1 h
[1]; rat, 35 mg/kg single oral dose, deuterated form
  Cmax: 4980 ng/mL
[1]; rat, 35 mg/kg single oral dose, estimate using an AUC of 15 for a 1 mg/kg IV arm, read-out: % F
  bioavailability: 8.83%
[1]; rat, oral, rats, read-out: estimated plasma % F (bioavailability)
  bioavailability: 9%
[2]; 35 mg/kg
  clinical effects compared to the HFD controls (in words): attenuated anemia, liver iron deposition, and liver fibrosis
[2]; 35 mg/kg/day in HFD
  Hematocrit: 38 ± 4%
  Hemoglobin: 14 ± 1 G/dl
  Mean cell hemoglobin: 23 ± 1 pg
  Mean cell volume: 64 ± 2 fL
  Nucleated red blood cells: 8 ± 1 10^3/ul
  Platelets: 485 ± 87 10^3/ul
  Red blood cell distribution width: 15 ± 1%
  Red blood cells: 6.0 ± 0.7 10^6/ul
[2]; plasma, 35 mg/kg/day in HFD
  Cholesterol: 2516 ± 746 mg/dL
  Globulins: 1.3 ± 0.7 G/dl
  Lipemia: 341 ± 243 mg/dL
  Triglycerides: 235 ± 132 mg/dL
Human PPAR-δ
  PPAR-delta agonist activity (in words): partial PPAR delta agonist
Human PPAR-γ
  EC50: > 100 µM
Human PPAR-γ; read-out: Half Maximal Effective Concentration (EC50), PPAR-γ, Table 5
  EC50: > 100 µM
Human PPAR-α
  EC50: 11.5 µM
[3]; 12 weeks daily oral, C15:0 5 mg/kg, C17:0 5 and 50 mg/kg
  metabolic syndrome compared to vehicle controls (in words): attenuated metabolic syndrome
[3]; [4]
  Cholesterol: 183 ± 25 mg/dL
  Glucose: 245 ± 37 mg/dL
  IL-6: 19 ± 11 pg/mL
  Insulin: 4.9 ± 3.8 ng/mL
  LDL-C: 6 ± 4 mg/dL
  MCP-1: 52 ± 25 pg/mL
  TNF-α: 1.6 ± 1.0 pg/mL
